Source: PubChem BioAssay (NCI)
Where “and” joins values, the source holds several entries; their conditions need not be identical. Equal values may be shown once.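 How tested: cells in 96-well plates exposed to compound for 48 hours at five concentrations. GI50 marks 50% less growth. At the TGI there is no net growth.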

Key:
Assay in all cases: NCI-60 cell line screen, 48 h
[1] = tested on: DU-145 prostate
[2] = tested on: HL-60(TB) leukemia
[3] = tested on: OVCAR-3 ovarian
[4] = tested on: OVCAR-8 ovarian
[5] = tested on: SF-539 CNS
[6] = tested on: SK-MEL-5 melanoma
[7] = tested on: SNB-19 CNS
[8] = tested on: SR leukemia
[9] = tested on: TK-10 renal
[10] = tested on: UACC-257 melanoma

SMILES	GI50 [1]	TGI [1]	GI50 [2] [µM]	TGI [2] [µM]	GI50 [3]	TGI [3]	GI50 [4]	TGI [4]	GI50 [5]	TGI [5]	GI50 [6]	TGI [6]	GI50 [7]	TGI [7] [µM]	GI50 [8]	TGI [8] [µM]	GI50 [9]	TGI [9]	GI50 [10] [µM]	TGI [10] [µM]
N=C(N)c1ccc(-c2ccc(-c3ccco3)o2)cc1	6.25 µM	19 µM	2.19	5.53	9.77 µM	22.1 µM	8.22 µM	30.7 µM	8.96 µM	21.5 µM	2.67 µM	9.76 µM	9.44 µM	23.2	3.17 µM	10.7	4.33 µM	15.6 µM	1.84	3.73
O=C(O)c1cc(/C=C/c2ccc(O)c(O)c2)ccc1O		> 100 µM		> 100		> 100 µM		> 100 µM		> 100 µM		> 100 µM		> 100		> 100		> 100 µM		> 100
NC(=O)c1ncn(C2CCC(CP(=O)(O)O)C2)c1N (centres undefined)		> 100 µM				> 100 µM		> 100 µM		> 100 µM		> 100 µM		> 100		> 100		> 100 µM		> 100
NC(=O)NC1=NCCC(=O)N1CCc1c[nH]c2ccccc12		52 µM		42.5		47.8 µM		32.2 µM		30.9 µM		34.2 µM		54.6		57.3		48.6 µM		34.6
COc1ccc2c(c1)Cc1cc(N=[N+]([O-])c3ccc4c(c3)Cc3cc(OC)ccc3-4)ccc1-2		> 100 µM		> 100		> 100 µM		> 100 µM		28.5 µM		42.8 µM		> 100		41.5		> 100 µM		52.7
COc1ccc(/C(C#N)=C/c2nc3c(N4CCOCC4)nc(Cl)nc3n2C)cc1OC	< 0.01 µM	1.3 µM	< 0.01	< 0.0112	< 0.01 µM	< 0.01 µM	< 0.01 µM	3.97 µM	< 0.01 µM	< 0.01 µM	< 0.0108 µM	0.0347 µM	< 0.01 µM	2.91	< 0.01 µM	3.68	0.924 µM	2.33 µM	1.29	2.87
O=C(O)/C=C/C(=O)Nc1cccc2c1-c1ccccc1C2=O		> 81.3 µM		6.9		5.78 µM		> 100 µM		19.2 µM		> 100 µM		> 100		> 57.8		> 29.7 µM		> 100
CCSc1sc(-c2ccc(C)cc2)nc1[P+](c1ccccc1)(c1ccccc1)c1ccccc1	0.346 µM	1.35 µM	0.206	0.542	0.3 µM	1.18 µM	0.313 µM	1.89 µM	0.394 µM	1.53 µM	0.174 µM	0.321 µM	0.332 µM	1.39	0.354 µM	3.47	0.271 µM	1.48 µM	0.294	1.05
c1ccc2c(c1)N=c1ccccc1=P21c2ccccc2Nc2ccccc21		10.5 µM				1.57 µM		5.62 µM		9.24 µM		0.42 µM		7.26		1.75		8.12 µM		2.73
COc1cccc(-n2cnc3c(N/N=C/c4ccncc4)ncnc32)c1	17.3 µM	> 25 µM	> 25	> 25	> 20.8 µM	> 25 µM	> 20.6 µM	> 25 µM	> 18.9 µM	> 25 µM	10.5 µM	> 25 µM	> 25 µM	> 25	12.3 µM	> 25	9.59 µM	> 25 µM	> 19.7	> 25
CC(C)=CCNc1ncnc2c1ncn2C1OC(COP(=O)(O)O)C(O)C1O (centres undefined)	1.35 µM	4.15 µM	1.94	6.33	2.13 µM	4.41 µM	1.6 µM	3.64 µM	4 µM	38.9 µM	> 73.7 µM	> 100 µM	26.3 µM	> 100			2.06 µM	5.59 µM	> 100	> 100
CCCCCCCC(=O)SCC/C=C/[C@@H]1CC(=O)NCc2cccc(n2)CN(Cc2ccc(Cl)cc2)CC(=O)N[C@@H](C(C)C)C(=O)O1	10.9 µM	> 100 µM	23.1	> 100	13.1 µM	49.4 µM	9.1 µM	> 100 µM	16.3 µM	> 100 µM	5.26 µM	17.6 µM	22.6 µM	> 100	3.64 µM	> 100	2.81 µM	23.6 µM	8.99	70.4
CCCCCc1c(C)[nH]c(/C=C2\N=C(c3ccc[nH]3)C=C2Oc2ccc(OC)cc2)c1C	0.165 µM and 0.0387 µM	4.38 µM and 1.52 µM	0.209	0.924	0.156 µM and 0.0414 µM	0.511 µM and 0.318 µM	0.18 µM and 0.0412 µM	1.12 µM and 0.207 µM	0.156 µM and 0.0431 µM	0.551 µM and 0.212 µM	0.0844 µM and 0.0187 µM	0.217 µM and 0.0466 µM	0.44 µM and 0.098 µM	1.99	0.0321 µM and 0.0291 µM		0.335 µM and 0.0439 µM	1.69 µM and 0.331 µM	0.125	0.998
Cc1c(Br)cccc1NC(=O)c1sc2nc3c(cc2c1N)CN(Cc1ccccc1)CC3	0.168 µM	2.99 µM	0.161	0.456	0.157 µM	0.773 µM	0.298 µM	> 50 µM	0.158 µM	0.858 µM	0.201 µM	8.18 µM	0.448 µM	> 50	0.107 µM	> 50	1.19 µM	16.1 µM	8.92	> 50
COC1=C(NC(C)=O)C(=O)c2nc3n(c2C1=O)CCC3		35.8 µM		> 30.4		30.3 µM		33.5 µM		32.9 µM		31.5 µM		67.6		> 86.2		> 66.6 µM		30.4
N#CC1=C(N)Oc2c(sc3c(F)cccc23)C1c1ccc(Cl)cc1 (centres undefined)	3.49 µM	12.9 µM	2.69	8.3	2.6 µM	7.44 µM	4.4 µM	18.7 µM	2.05 µM	5.59 µM	3.68 µM	15.1 µM	3.32 µM	16.3	1.6 µM	13.4	8.38 µM	24.3 µM	11.7	> 100

SMILES	GI50 [1]	TGI [1]	GI50 [2] [µM]	TGI [2] [µM]	GI50 [3]	TGI [3]	GI50 [4]	TGI [4]	GI50 [5]	TGI [5]	GI50 [6]	TGI [6]	GI50 [7]	TGI [7] [µM]	GI50 [8]	TGI [8] [µM]	GI50 [9]	TGI [9]	GI50 [10] [µM]	TGI [10] [µM]
CC(CC(C)[C@H]1CCC2[C@H]3C(CC[C@@]21C)[C@@]1(C)CCC(O)C[C@H]1C[C@@H]3O)C(=O)O (some centres undefined)		> 100 µM		> 100				> 100 µM		> 100 µM				> 100		> 100		> 100 µM		> 100
COc1cc(Oc2cnc3cc(N)cc(N)c3n2)cc(OC)c1OC	62.3 µM	> 100 µM	21.9	45	26.8 µM	> 100 µM	58.8 µM	> 100 µM	46.2 µM	> 100 µM	39.5 µM	> 100 µM	> 100 µM	> 100	14 µM	37.2	33.3 µM	> 100 µM	> 100	> 100
CC(=N\O)/C(C)=N/O.CC(=N\O)/C(C)=N/O.[Pd]	6.48 µM	> 10 µM	4	> 10	3.83 µM	> 10 µM	1.84 µM	3.62 µM	2.77 µM	6.1 µM	1.81 µM	4.04 µM	> 10 µM	> 10	> 10 µM	> 10	4.57 µM	> 10 µM	3.15	> 10
COc1ccc(-c2ccc(/C=N/n3cnn(CN4CCN(C)CC4)c3=S)o2)c([N+](=O)[O-])c1	38.1 µM	> 100 µM	17.7	49.9	26.7 µM	66.9 µM	18.9 µM	55.5 µM	17 µM	34.1 µM	23.9 µM	62.7 µM	56.4 µM	> 100	31.5 µM	> 100	36.4 µM	> 100 µM		
CC(=O)O/N=C1\C=Cc2c(no[n+]2[O-])C1=O		32 µM				30 µM		25.4 µM		31.3 µM		31.6 µM		> 100		48.5		29 µM		32.2
COC1=CC(=O)c2c(O)c3c(c(O)c2C1=O)CC(C)(O)OC3 (centres undefined)		15 µM		24.2		7.08 µM		8.65 µM		9.66 µM		2.41 µM		13.4				34.4 µM		4.88
CC(=O)NC1=NC(=O)/C(=C/c2ccc(Cl)cc2Cl)N1C		> 100 µM		7.37		> 100 µM		> 100 µM		> 100 µM		> 100 µM		> 100				> 100 µM		> 100
COc1cc(OC)cc(-c2n[nH]nc2-c2ccc3c(c2)OCO3)c1	0.346 µM	> 100 µM			0.0745 µM	0.378 µM	0.512 µM	31.3 µM	0.181 µM	0.546 µM	0.168 µM	11.9 µM	0.501 µM	> 100	0.0436 µM	11.6	17.6 µM	> 100 µM	18.2	70.4
C=CC[n+]1c(/C=C2\Sc3ccccc3N2C)sc(-c2ccccc2)c1-c1ccccc1	0.439 µM	12.2 µM	0.241	0.665			0.338 µM	10.9 µM	0.411 µM	12.5 µM	0.173 µM	0.32 µM	0.375 µM	15.1	0.353 µM	1.87	0.307 µM	3.35 µM	0.239	0.737
COC(=O)c1ccc2c(c1)[n+](=O)c(C(C)=O)c(C(F)(F)F)n2[O-]	1.83 µM	3.23 µM	1.94	7.87	1.82 µM	3.27 µM	2.87 µM	8.28 µM	1.85 µM	3.36 µM	1.69 µM	3.06 µM	3.12 µM	9.12			2.77 µM	6.05 µM	1.82	3.31
CC(C)OCC(O)COc1cc(=O)oc2ccccc12 (centres undefined)		> 100 µM		> 100		> 100 µM		> 100 µM				> 100 µM		> 100		> 100		> 100 µM		> 100
Cn1c(=O)c2[nH]c(Nc3ccccc3)nc2n(C)c1=O		> 10 µM		> 10				> 10 µM				> 10 µM				> 10		> 10 µM		> 10
COC(=O)C1=C(O)C(C(=O)OC)[C@@]2(O)[C@@H](C(=O)OC)C(c3ccccc3C(F)(F)F)C[C@@H]1[C@@H]2C(=O)OC (some centres undefined)	3.23 µM	10.9 µM			1.69 µM	4.14 µM	10.1 µM	24.5 µM	2.14 µM	5.71 µM	3.46 µM	13.2 µM	1.81 µM	13.6	2.82 µM	62.4	12.1 µM	25.5 µM	6.39	20.3
COc1cc(C2CC(c3ccc(C)cc3)=NN2C(C)=O)ccc1Oc1ccnc2cc(Cl)ccc12 (centres undefined)	> 100 µM	> 100 µM	> 100	> 100	> 100 µM	> 100 µM			11.7 µM	> 100 µM	> 100 µM	> 100 µM	37.4 µM	> 100	> 100 µM	> 100			> 100	> 100
COc1cc2c(cc1OC)[C@@H]1[C@H](C2=O)c2ccc([N+](=O)[O-])cc2C(=O)N1CCCBr	0.553 µM	> 20.4 µM				0.748 µM	0.0169 µM	2.04 µM	0.387 µM	2.29 µM	< 0.01 µM	0.123 µM	0.474 µM	> 100	< 0.01 µM	0.311	1.28 µM	41.1 µM	0.0737	0.893
